According to patent US10517952B2, “Nucleophile-triggered degradable materials and methods of making and using the same” (GEORGIA TECH RESEARCH CORPORATION, priority 2014, dated 2019):
Where “and” joins values, the source holds several entries; their conditions need not be identical. Equal values may be shown once.

Legend:
[1] = Residual hydrogel thiol content with fluorogenic OND probe S-6; assay type: physicochemical; settings: for Residual thiols in the gel network, average: average of both sets of gels from linkers 7a and 8, % of input macromer thiol content; for Gel Fraction % Residual Thiol: residual thiol in the gel, % of initial thiol content of input macromer; for Sol Fraction % Residual Thiol: thiol in supernatant, % of input thiol, swelled 18 hours at 4° C., pH 7.4 PBS, probe S-6
Procedure: The thiol content of cured hydrogels was determined by swelling gels in the presence of a small fluorogenic OND S-6, which we have previously described in our lab.
This probe reacts with thiols to produce a fluorescent adduct (FIG. 14A). […] Thus, the concentration of reagent S-6 in solution can be determined by quenching with thiol. Similarly, reagent S-6 can be used to quantify thiol in solution.
Based on cargo diffusion studies (see section X of this document), we expected that probe S-6 should easily permeate the hydrogel network under swelling conditions and react with accessible residual thiols present in the gel network. In order to test this hypothesis, 60 μL hydrogels were freshly prepared from 4-PEG-SH macromer and either linkers 8 or 7a as described in section III of this document. After curing for 20 minutes at room temperature, 3 mL of pH 7.4 0.1M PBS buffer containing 200 μM probe S-6 was added, and the gel was swelled at 4° C. for 18 hours. To account for hydrolytic degradation of our thiol probe during incubation, a sample was prepared with S-6 in buffer alone (lacking 4-PEG-SH and bis-OND linkers). After swelling, the gels were observed under long-wave ultraviolet light to reveal strongly fluorescent gels and weakly fluorescent supernatants (FIG. 15). […] Presumably the fluorescence in the supernatant of samples containing gels is due to soluble fraction of 4-PEG-SH macromer and oligomers not incorporated into the gel network.
In order to calculate the amount of residual thiol present in the soluble fraction, aliquots of the supernatant were removed and fluorescence was measured. Thiol content of the soluble fraction was determined by interpolation using the standard curve shown in FIG. 14 after accounting for fluorescence due to hydrolytic degradation. […] This amount corresponds well with the soluble fraction (soluble fraction=1−gel fraction) determined from swelling experiments (see Table 1 of main text). To determine residual thiol content present in gels, aliquots of the supernatant were quenched with a large excess (10 mM) of N-acetyl cysteine and the increase in fluorescence was measured to determine the amount of unreacted S-6 remaining in the supernatant. Accounting for the amount of probe already consumed by reaction with soluble fraction thiols and by hydrolytic degradation, the amount of residual thiol accessible for post-modification present in the gel was calculated as 13.4±1.4% and 10.8±2.4% of the initial thiol content of input macromer (average of 11.8±3.3 for both sets of gels prepared from linkers 7a and 8).

[2] = Degradation of neat PEG-OND hydrogels (inversion test, time-lapse photography); assay type: physicochemical
Procedure: Degradation rates of the PEG-OND hydrogels in the absence of swelling buffer varied with temperature and with the identity of OND used to form the gel. […] In comparison, gels formed using 7b were stable for more than 60 hours at 37° C., and approximately 13 hours at 50° C.
Three 500 μL 3.5 wt % hydrogels were formed with bis-ONDs 7a and 7b, and bis-EONB 8, respectively, in 2 mL vials with caps. The sealed vials were incubated in an oil bath maintained at 50° C. The samples were periodically removed from heat and the vials were inverted to determine if the gel was still intact, or whether the sample was a free-flowing liquid, as described in the main text. The gel formed between 4-PEG-SH and bis-EONB 8 in FIG. 9 was removed from heat after 5 days, and stored at room temperature in a sealed vial. The hydrogel is still intact at the time of writing (5 days at 50° C. followed by >1 year at room temperature). The inversion test was routinely used in all stability experiments to verify hydrogel integrity during incubation.
In order to observe reverse gelation upon prolonged heating of neat hydrogels, time-lapse photography was carried out. Briefly, 600 μL hydrogels comprised of 3.5 wt % 4-PEG-SH+bis-OND/EONB (7a, 7b, and 8, respectively) in pH 7.4 100 mM potassium phosphate buffer containing 7% DMSO (v/v) were formed in glass culture tubes and allowed to set for 15 minutes. A glass bead (˜160 mg, stained with blue Sharpie-brand marker to improve visibility) was placed carefully on top of each gel, and a drop of silicon oil was added to prevent evaporation at the surface of the gels. The tubes were sealed with lab parafilm and incubated in a 50° C. oil bath. Photos were collected every 2 minutes for ˜22 hours using Chronolapse software (v.1.0.4) and a Creative Labs webcam. Photographs were compiled in chronological order using iMovie software, with each photo occupying one 0.1 s frame. The resulting video is available as S1 Video, mentioned above.

| Gel stability by inversion test ([2]; neat gel, no swelling buffer, 4° C.) | Time gel is stable / collapses (inversion test) ([2]; neat gel, no swelling buffer, 37° C.) [h] | Time gel is stable / collapses (inversion test) ([2]; neat gel, no swelling buffer, 50° C.) [h] | Compound | Residual thiols in the gel network, average [1] [%] | Gel Fraction % Residual Thiol [1] | Sol Fraction % Residual Thiol [1] [%] | Inversion test for hydrogel degradation (FIG. 1B) [2] | Long-term gel integrity ([2]; 5 days at 50° C. followed by >1 year at room temperature) | Gel integrity on extended heating (inversion test) ([2]; neat gel, 50° C.) | Gel stability by time-lapse photography, gel supporting a glass bead ([2]; neat gel, heating (50° C.)) |
| --- | --- | --- | --- | --- | --- | --- | --- | --- | --- | --- |
| – | – | – | COC(=O)C1=C(C(=O)OC)C2(CNC(=O)CCCC(=O)NCC34OC(C(C(=O)OC)=C3C(=O)OC)C3OC34)OC1C1OC12 (centres unmarked) [Linker 8, Tetramethyl 1,1′-((glutaroylbis(azanediyl))bis(methylene))bis(3,8-dioxatricyclo[3.2.1.0^2,4]oct-6-ene-6,7-dicarboxylate)] | 11.8±3.3 | 13.4±1.4% and 12.8 ± 2.2% | 2.1±0.4 | stable indefinitely | still intact | remained intact | remained intact |
| stable for more than two weeks | 12 | ≤ 3 | COC(=O)C1=C(C(=O)OC)C2(CNC(=O)CCCC(=O)NCC34C=CC(O3)C(C(=O)OC)=C4C(=O)OC)C=CC1O2 [Linker 7a, Tetramethyl 1,1′-((glutaroylbis(azanediyl))bis(methylene))bis(7-oxabicyclo[2.2.1]hepta-2,5-diene-2,3-dicarboxylate)] | 11.8±3.3 | 10.8±2.4% | 8.1±3.2 | – | – | collapsed | – |
